This note sets out measurements from ChEMBL document CHEMBL4346683 (Eur J Med Chem, 2019).

As usually defined, the CC50 is the concentration giving 50% cytotoxicity. A word on the MIC: it is the lowest concentration that inhibits growth of the organism. The IC50 is the concentration that inhibits the measured activity by half.

A short description of series [1]: Cytotoxicity against human 293T cells assessed as reduction in cell viability incubated for 24 hrs by MTT assay. It counts as cell-based. As to conditions: HEK-293T cells. A general note: Tetrazolium dyes change colour on reduction, which living cells bring about.
A short description of series [2]: Induction of hemolysis in human erythrocytes assessed as hemoglobin release incubated for 3 hrs by spectrophotometric analysis. Format: cell-based. The note with it: erythrocyte.
In series [3] the test system is Bacillus subtilis. Nature of the series: Antibacterial activity against Bacillus subtilis ATCC 530 assessed as inhibition of bacterial growth incubated for 24 hrs by TTC double broth dilution method. As to conditions: ATCC 530, 24 h. It counts as functional.
The subject of series [4] is Staphylococcus aureus. Nature of the series: Antibacterial activity against Staphylococcus aureus ATCC 25923 assessed as inhibition of bacterial growth incubated for 24 hrs by TTC double broth dilution method. It counts as functional. The note with it: ATCC 25923, 24 h.
Series [5] has as its system Escherichia coli. Nature of the series: Antibacterial activity against Escherichia coli ATCC 25922 assessed as inhibition of bacterial growth incubated for 24 hrs by TTC double broth dilution method. Format: functional. The note with it: ATCC 25922, 24 h.
For series [6], the system named is Pseudomonas aeruginosa. Nature of the series: Antibacterial activity against Pseudomonas aeruginosa ATCC 27853 assessed as inhibition of bacterial growth incubated for 24 hrs by TTC double broth dilution method. It counts as functional. The note with it: ATCC 27853, 24 h. On the technique in general: Dilution methods test growth across graded concentrations, often in twofold steps.

Series [7] concerns the target T1, 3-oxoacyl-[acyl-carrier-protein] synthase 3 (Escherichia coli, UniProt C3TDZ2).
T1 sequence (C3TDZ2 whole entry): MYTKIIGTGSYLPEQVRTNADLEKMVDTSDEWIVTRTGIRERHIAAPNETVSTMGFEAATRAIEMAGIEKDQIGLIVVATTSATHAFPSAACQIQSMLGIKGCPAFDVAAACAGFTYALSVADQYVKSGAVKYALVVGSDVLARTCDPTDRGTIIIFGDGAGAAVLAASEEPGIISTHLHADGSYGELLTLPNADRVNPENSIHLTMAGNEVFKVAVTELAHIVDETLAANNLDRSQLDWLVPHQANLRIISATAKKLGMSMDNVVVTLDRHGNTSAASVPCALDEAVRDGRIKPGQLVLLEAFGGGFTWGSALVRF
Nature of the series: Inhibition of Escherichia coli FabH in presence of radiolabelled substrates and acetyl-coA by enzyme coupled FabD/FabH assay system.

≈ marks a conversion by molar mass, not a printed value.

With `O=C(c1ccncc1)n1c(-c2cn(-c3ccccc3)nc2-c2ccc(C(F)(F)F)cc2)nc2ccccc21`, in series [1], the CC50 at 24 h was determined as 135 µM. For the same molecule, in series [2], the LC30 is over 10000 µg/mL. The MIC is 7.8 µg/mL (≈ 15.3 µM) in series [3], 62.5 µg/mL (≈ 123 µM) in series [4], over 62.5 µg/mL in series [5] and 62.5 µg/mL (≈ 123 µM) in series [6]. In series [7], the IC50 turned out to be 32.7 µM.

With `Cc1cccc(C(=O)n2c(-c3cn(-c4ccccc4)nc3-c3ccc(C(F)(F)F)cc3)nc3ccccc32)c1`, the CC50 at 24 h in series [1] came out at 154 µM. For the same molecule, in series [2], the LC30 was over 10000 µg/mL. For the same molecule, the MIC in series [3] was 31.2 µg/mL (≈ 59.8 µM); in series [4] it was over 62.5 µg/mL; in series [5] it was 62.5 µg/mL (≈ 120 µM); in series [6] it was 31.2 µg/mL (≈ 59.8 µM). Further, the IC50 in series [7] was found to be 34.9 µM.

For `Cc1ccc(C(=O)n2c(-c3cn(-c4ccccc4)nc3-c3ccc(C)cc3)nc3ccccc32)cc1`, the CC50 at 24 h in series [1] is 176 µM. The LC30 in series [2] is over 10000 µg/mL. The minimum inhibitory concentration (MIC) in series [3] was 0.98 µg/mL (≈ 2.09 µM); in series [4] it was over 62.5 µg/mL; in series [5], 3.9 µg/mL (≈ 8.32 µM); in series [6], 31.2 µg/mL (≈ 66.7 µM). The IC50 in series [7] is 3.06 µM.

Consider `Cc1ccc(-c2nn(-c3ccccc3)cc2-c2nc3ccccc3n2C(=O)c2cccc(C)c2)cc1`, for which, in series [1], the CC50 at 24 h worked out at 195 µM. In series [2], the LC30 was over 10000 µg/mL. Further, the MIC is 31.2 µg/mL (≈ 66.7 µM) in series [3], over 62.5 µg/mL in series [4], 62.5 µg/mL (≈ 133 µM) in series [5] and 62.5 µg/mL (≈ 133 µM) in series [6]. In series [7], the IC50 is 33.2 µM.

For the molecule `O=C(c1ccc(Cl)cc1)n1c(-c2cn(-c3ccccc3)nc2-c2ccc(F)cc2)nc2ccccc21`, the CC50 at 24 h in series [1] was 179 µM. In addition, the LC30 in series [2] is over 10000 µg/mL. Further, the MIC in series [3] was 62.5 µg/mL (≈ 127 µM); in series [4] it was over 62.5 µg/mL; in series [5], 62.5 µg/mL (≈ 127 µM); in series [6], over 62.5 µg/mL. The IC50 in series [7] turned out to be 36.1 µM.

`Cc1ccc(-c2nn(-c3ccccc3)cc2-c2nc3ccccc3n2C(=O)c2ccccc2C)cc1`: the CC50 at 24 h in series [1] worked out at 176 µM. In series [2], the LC30 is over 10000 µg/mL. Besides, the MIC is 62.5 µg/mL (≈ 133 µM) in series [3], over 62.5 µg/mL in series [4], 62.5 µg/mL (≈ 133 µM) in series [5] and over 62.5 µg/mL in series [6]. The IC50 in series [7] is 35.4 µM.

Consider `Cc1ccc(-c2nn(-c3ccccc3)cc2-c2nc3ccccc3n2C(=O)c2cccnc2)cc1`, for which the CC50 at 24 h in series [1] was 189 µM. Besides, the LC30 in series [2] was over 10000 µg/mL. Besides, the MIC in series [3] worked out at 0.98 µg/mL (≈ 2.15 µM); in series [4] it was 31.2 µg/mL (≈ 68.6 µM); in series [5], 62.5 µg/mL (≈ 137 µM); in series [6], 62.5 µg/mL (≈ 137 µM). Besides, the IC50 in series [7] was 18.3 µM.

For the molecule `Cc1ccccc1C(=O)n1c(-c2cn(-c3ccccc3)nc2-c2ccc(C(F)(F)F)cc2)nc2ccccc21`, the CC50 at 24 h in series [1] was determined as 179 µM. Moreover, in series [2], the LC30 was over 10000 µg/mL. The MIC in series [3] is 62.5 µg/mL (≈ 120 µM); in series [4], over 62.5 µg/mL; in series [5] it was over 62.5 µg/mL; in series [6], over 62.5 µg/mL. The IC50 in series [7] worked out at 36.5 µM.

`Cc1ccc(C(=O)n2c(-c3cn(-c4ccccc4)nc3-c3ccc(C(F)(F)F)cc3)nc3ccccc32)cn1`: the CC50 at 24 h in series [1] was determined as 153 µM. Besides, the LC30 in series [2] was over 10000 µg/mL. Moreover, the MIC in series [3] is 0.49 µg/mL (≈ 0.936 µM); in series [4], 62.5 µg/mL (≈ 119 µM); in series [5] it was 1.95 µg/mL (≈ 3.72 µM); in series [6], 62.5 µg/mL (≈ 119 µM). Besides, in series [7], the IC50 came out at 2.05 µM.

`Cc1ccc(C(=O)n2c(-c3cn(-c4ccccc4)nc3-c3ccc(F)cc3)nc3ccccc32)cc1`: in series [1], the CC50 at 24 h came to 178 µM. Further, the LC30 in series [2] is over 10000 µg/mL. Also, the MIC in series [3] is 0.98 µg/mL (≈ 2.07 µM); in series [4], over 62.5 µg/mL; in series [5], 62.5 µg/mL (≈ 132 µM); in series [6] it was over 62.5 µg/mL. Moreover, the IC50 in series [7] was found to be 30.3 µM.

On to `NC[C@H]1O[C@H](O[C@H]2[C@H](O)[C@@H](O[C@H]3O[C@H](CO)[C@@H](O)[C@H](N)[C@H]3O)[C@H](N)C[C@@H]2N)[C@H](N)[C@@H](O)[C@@H]1O` [BEKANAMYCIN], for which the MIC was found to be 0.98 µg/mL (≈ 2.03 µM) in series [3], 0.98 µg/mL (≈ 2.03 µM) in series [4], 1.95 µg/mL (≈ 4.03 µM) in series [5] and 3.9 µg/mL (≈ 8.07 µM) in series [6].
